# From patent US12612412B2, “Antiviral heterocyclic compounds” (Enanta Pharmaceuticals, Inc., priority 2021, dated 2026)
# Test system: genotype A, "Long" strain RSV
# Experiment: RSV-A assay (CPE protection in Hep-2 cells, ATPlite readout)
# Assay type: cell-based, Human respiratory syncytial virus (HRSV)
# Conditions: human respiratory syncytial virus, RSV-A Long strain, MOI 0.1, CPE protection, read-out: Human RSV-A (“Long”) EC50
# In short: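 Hep-2 cells (8,000/well) were treated with 2-fold serial compound dilutions in duplicate and infected with RSV at MOI 0.1. After 5 days, protection from cytopathic effect was measured as cell viability by ATPlite luminescence, and EC50 values were derived.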
row,SMILES,EC50 [nM]
1,COc1cc(C(=O)NC[C@](O)(c2cc3c(c(C4CCC(F)(F)CC4)n2)OC[C@]3(C)C(N)=O)C(F)(F)F)cc2cn(C3CC3)nc12 [Example 1268],< 200
2,COc1cc(C(=O)NC[C@](O)(c2cc3c(c(N4CCC(F)(F)CC4)n2)OC[C@]3(C)C(N)=O)C(F)(F)F)cc2cn(C3CC3)nc12 [Example 1270],< 200
3,COc1cc(C(=O)NC[C@](O)(c2cc3c(c(N4CCCC(F)(F)C4)n2)OC[C@]3(C)C(N)=O)C(F)(F)F)cc2cn(C3CC3)nc12 [Example 1271],< 200
4,[2H]C([2H])([2H])c1nc2c(OC)cc(C(=O)NC[C@](O)(c3cc4c(c(-c5cc(Br)c(F)cc5F)n3)OC[C@]4(C)C(N)=O)C3CC3)cc2cc1Cl [Example 1272],< 200
5,COc1cc(C(=O)NC[C@](O)(c2cc3c(c(-c4c(Cl)ccc(F)c4F)n2)OC[C@]3(C)C(N)=O)C(F)(F)F)cc2cn(C3CC3)nc12 [Example 1284],< 200
6,[2H]C([2H])([2H])c1nc2c(OC)cc(C(=O)NC[C@](O)(c3cc4c(c(-c5cc(Cl)c(F)cc5F)n3)OC[C@]4(C)C(N)=O)C3CC3)cc2cc1Cl [Example 1287],< 200
7,[2H]C([2H])([2H])c1nc2c(OC)cc(C(=O)NC[C@](O)(c3cc4c(c(-c5cc(F)c(F)cc5F)n3)OC[C@]4(C)C(N)=O)C3CC3)cc2cc1Cl [Example 1288],< 200
8,COc1cc(C(=O)NC[C@](O)(c2cc3c(c(-c4ccc5c(c4)OC(F)(F)O5)n2)OC[C@]3(C)C(N)=O)C2CC2)cc2sc(C)nc12 [Example 1291],< 200
9,C[C@]1(C(N)=O)COc2c1cc([C@@](O)(CNC(=O)c1ccc3nc(C4CC4)sc3c1)C1CC1)nc2-c1ccc2c(c1)OC(F)(F)O2 [Example 1292],> 200
10,COc1cc(C(=O)NC[C@](O)(c2cc3c(c(-c4ccc5c(c4)OC(F)(F)O5)n2)OC[C@]3(C)C(N)=O)C2CC2)cc2sc(C3CC3)nc12 [Example 1293],< 200

# Continued, values first:
row,EC50 [nM],SMILES
1,< 200,COc1cc(C(=O)NC[C@](O)(c2cc3c(c(-c4cc(F)c(F)c(F)c4)n2)OC[C@]3(C)C(N)=O)C2CC2)cc2cn(C3CC3)nc12 [Example 1273]
2,< 200,COc1cc(C(=O)NC[C@](O)(c2cc3c(c(-c4c(F)ccc(F)c4F)n2)OC[C@]3(C)C(N)=O)C2CC2)cc2cn(C3CC3)nc12 [Example 1274]
3,< 200,COc1cc(C(=O)NC[C@](O)(c2cc3c(c(-c4cc(Cl)c(F)cc4Cl)n2)OC[C@]3(C)C(N)=O)C2CC2)cc2cn(C3CC3)nc12 [Example 1275]
4,< 200,COc1cc(C(=O)NC[C@](O)(c2cc3c(c(-c4cc(F)cc(F)c4)n2)OC[C@]3(C)C(N)=O)C2CC2)cc2cn(C3CC3)nc12 [Example 1276]
5,< 200,COc1cc(C(=O)NC[C@](O)(c2cc3c(c(-c4ccc(F)cc4F)n2)OC[C@]3(C)C(N)=O)C2CC2)cc2cn(C3CC3)nc12 [Example 1277]
6,< 200,COc1cc(C(=O)NC[C@](O)(c2cc3c(c(-c4cc(F)c(F)c(F)c4F)n2)OC[C@]3(C)C(N)=O)C2CC2)cc2cn(C3CC3)nc12 [Example 1278]
7,< 200,COc1cc(C(=O)NC[C@](O)(c2cc3c(c(-c4ccc(Cl)cc4Cl)n2)OC[C@]3(C)C(N)=O)C2CC2)cc2cn(C3CC3)nc12 [Example 1279]
8,< 200,COc1cc(C(=O)NC[C@](O)(c2cc3c(c(-c4cc(Cl)ccc4Cl)n2)OC[C@]3(C)C(N)=O)C2CC2)cc2cn(C3CC3)nc12 [Example 1280]
9,< 200,COc1cc(C(=O)NC[C@](O)(c2cc3c(c(-c4cc(Cl)cc(Cl)c4)n2)OC[C@]3(C)C(N)=O)C2CC2)cc2cn(C3CC3)nc12 [Example 1281]
10,< 200,COc1cc(C(=O)NC[C@](O)(c2cc3c(c(-c4cc(F)ccc4F)n2)OC[C@]3(C)C(N)=O)C2CC2)cc2cn(C3CC3)nc12 [Example 1282]
11,< 200,COc1cc(C(=O)NC[C@](O)(c2cc3c(c(-c4cccc(Cl)c4F)n2)OC[C@]3(C)C(N)=O)C2CC2)cc2cn(C3CC3)nc12 [Example 1283]
12,< 200,COc1cc(C(=O)NC[C@](O)(c2cc3c(c(-c4cc(F)cc(Cl)c4Cl)n2)OC[C@]3(C)C(N)=O)C2CC2)cc2cn(C3CC3)nc12 [Example 1285]
13,< 200,COc1cc(C(=O)NC[C@](O)(c2cc3c(c(-c4cccc(Cl)c4Cl)n2)OC[C@]3(C)C(N)=O)C2CC2)cc2cn(C3CC3)nc12 [Example 1286]
14,< 200,COc1cc(C(=O)NC[C@](O)(c2cc3c(c(-c4c(F)ccc(Cl)c4Cl)n2)OC[C@]3(C)C(N)=O)C2CC2)cc2cn(C3CC3)nc12 [Example 1289]
15,< 200,CNC(=O)[C@@]1(C)COc2c1cc([C@@](O)(CNC(=O)c1cc(OC)c3nn(C4CC4)cc3c1)C1CC1)nc2-c1ccc(F)cc1 [Example 1290]

# Test system: HMPV clinical isolate TN/1501/A1
# Experiment: HMPV antiviral assay Method-B (clinical isolate TN/1501/A1 in LLC-MK2 cells, ATP-Lite readout)
# Assay type: cell-based, Human metapneumovirus (HMPV)
# Conditions: human metapneumovirus, LLC-MK2, 144 h, hMPV WT1501 (clinical isolate TN/1501/A1), 6 days
# Protocol: In vitro HMPV antiviral activity was evaluated using the clinical isolate TN/1501/A1 and LLC-MK2 cells (ATCC #CCL-7), an immortalized kidney epithelial cell line from Macaca mulatta. Compounds were resuspended in dimethyl sulfoxide (DMSO) at 10 mM and added to a 384-well source plate. The compounds were diluted and transferred onto 384-well assay plates using the Echo-650 automated liquid handling system (Beckman Coulter, Indiana). The test compounds were assessed in duplicate at a top concentration of 10 μM followed by 3-fold serial dilutions to give a total of 10 concentration points. DMSO control wells were also included on the assay plates and were either infected or not, acting as positive and negative controls. TN/1501/A1 virus infections were performed in-suspension with LLC-MK2 cells. The cells were washed twice with PBS and removed from the cell-culture flask with 0.25% trypsin-EDTA (Thermo Fisher Scientific, MA). The trypsin-EDTA was inactivated by resuspending in 2% fetal bovine serum (FBS) and OptiMEM (ThermoFisher Scientific, MA) containing 1% penicillin-streptomycin. Cells were pelleted by centrifuging for 5 minutes at 800 rpm, the supernatant was removed, and cells were suspended in PBS plus 100 μg/mL CaCl2). This step was performed twice. Cells were then resuspended in serum-free (SF)-OptiMEM containing 4 μg/mL TPCK-Trypsin (Sigma Aldrich, MO), 1% penicillin-streptomycin (ThermoFisher Scientific, MA) and 100 μg/mL CaCl2). Cells were counted and seeded at a density of 5,000 cells/well, 12.5 μL/well. Virus infections were done at a multiplicity of infection (MOI) of 0.014 with 12.5 μL added per well. SF-OptiMEM, 12.5 μL/well, was added to the appropriate wells to serve as a virus-free negative control for the assay. The final concentration of TPCK-trypsin was 2 μg/mL. Plates were incubated at 37° C., 5% CO2 for 6 days. After 6 days incubation, 12.5 μL of ATP-Lite (PerkinElmer, MA) was added to each well and the raw luminescence values were determined using the Envision 2104 (Perkin Elmer, MA). The average of the raw luminescence values for the cells and virus only positive control wells was subtracted from all conditions tested and the percent cell health was determined by dividing these values by the average of the cells only negative control wells. EC50 values were then calculated by non-linear regression using a four-parameter curve logistic equation. The curve fit model employed was XLFit Dose Response One Site Model 200: y=(A+(B/(1+((x/C)^D)))), where A is the minimum y value, B is the maximum y value, C is the log EC50 value, and D is the slope factor. […] EC50 ranges are as follows: A<0.5 μM; B>0.5 μM.
row,SMILES,EC50 [nM]
1,COc1cc(C(=O)NC[C@](O)(c2cc3c(c(-c4csc5c(F)cccc45)n2)OC[C@]3(C)C(N)=O)C2(F)CC2)cc2cn(C3(F)CC3)nc12 [Example 629],< 500
2,COc1cc(C(=O)NC[C@](O)(c2cc3c(c(-c4csc5c(F)cccc45)n2)OC[C@]3(C)C(N)=O)C2(F)CC2)cc2cn(C(F)F)nc12 [Example 630],< 500
3,C[C@]1(C(N)=O)COc2c1cc([C@@](O)(CNC(=O)c1cc(Cl)c3nn(C4CC4)cc3c1)C1(F)CC1)nc2-c1csc2c(F)cccc12 [Example 631],< 500
4,COc1cc(C(=O)NC[C@](O)(c2cc3c(c(-c4csc5c(F)cccc45)n2)OC[C@]3(C)C(N)=O)C2(F)CC2)cc2cn(C3CC3)nc12 [Example 632],< 500
5,Cc1cnc2c(Cl)cc(C(=O)NC[C@](O)(c3cc4c(c(-c5cc(Cl)c(F)c(Cl)c5)n3)OC[C@]4(C)C(N)=O)C3CC3)cc2c1 [Example 682],> 500
6,COc1cc(C(=O)NC[C@](O)(c2cc3c(c(-c4ccc(Cl)c(F)c4F)n2)OC[C@]3(C)C(N)=O)C2CC2)cc2cc(Br)cnc12 [Example 689],< 500
7,C[C@]1(C(N)=O)COc2c1cc([C@@](O)(CNC(=O)c1ccc3nn(C4CC4)cc3c1)C1CC1)nc2-c1cc(Cl)c(F)cc1F [Example 690],< 500
8,COc1cc(C(=O)NC[C@](O)(c2cc3c(c(-c4ccc(F)cc4)n2)OC[C@]3(C)C(N)=O)C(F)(F)F)cc2cc(Br)c(C)nc12 [Example 769],< 500
9,COc1cc(C(=O)NC[C@](O)(c2cc3c(c(-c4ccc5c(c4)OC(F)(F)O5)n2)OC[C@]3(C)C(N)=O)C(F)(F)F)cc2cc(Br)c(C)nc12 [Example 770],< 500
10,COc1cc(C(=O)NC[C@](O)(c2cc3c(c(-c4ccc(F)cc4)n2)OC[C@]3(C)C(N)=O)C2CC2)cc2cc(Br)c(C)nc12 [Example 771],< 500
11,COc1cc(C(=O)NC[C@](O)(c2cc3c(c(-c4ccc(F)cc4)n2)OC[C@]3(C)C(N)=O)C2(F)CC2)cc2cc(Br)c(C)nc12 [Example 772],< 500
12,COc1cc(C(=O)NC[C@](O)(c2cc3c(c(-c4ccc(F)c(Br)c4F)n2)OC[C@]3(C)C(N)=O)C2CC2)cc2cc(Br)cnc12 [Example 803],< 500

# Next, values leading:
row,EC50 [nM],SMILES
1,< 500,COc1cc(C(=O)NC[C@](O)(c2cc3c(c(-c4cc(Cl)c(F)c(Cl)c4)n2)OC[C@]3(C)C(N)=O)C2CC2)cc2cn(C3CC3)nc12 [Example 676]
2,> 500,COc1cc(C(=O)NC[C@](O)(c2cc3c(c(-c4cc(Cl)c(F)c(Cl)c4)n2)OC[C@]3(C)C(N)=O)C2CC2)cc2cn(C(F)F)nc12 [Example 677]
3,< 500,COc1cc(C(=O)NC[C@](O)(c2cc3c(c(-c4cc(Cl)c(F)c(Cl)c4)n2)OC[C@]3(C)C(N)=O)C2CC2)cc2cn(C3(F)CC3)nc12 [Example 678]
4,> 500,COc1cc(C(=O)NC[C@](O)(c2cc3c(c(-c4cc(Cl)c(F)c(Cl)c4)n2)OC[C@]3(C)C(N)=O)C2CC2)cc2cc(Br)cnc12 [Example 679]
5,> 500,C[C@]1(C(N)=O)COc2c1cc([C@@](O)(CNC(=O)c1cc(Cl)c3nn(C4CC4)cc3c1)C1CC1)nc2-c1cc(Cl)c(F)c(Cl)c1 [Example 680]
6,> 500,COc1cc(C(=O)NC[C@](O)(c2cc3c(c(-c4cc(Cl)c(F)c(Cl)c4)n2)OC[C@]3(C)C(N)=O)C2CC2)cc2cc(Cl)c(C)nc12 [Example 681]
